Here are results for twelve compounds from patent US12134610B2, “Somatostatin subtype-2 receptor (SST2R) targeted therapeutics and uses thereof” (priority 2022, dated 2024).

Assay type in all cases: cell-based
The target in test [1] is T1, human somatostatin receptor subtype 2 (Homo sapiens, UniProt P30874).
T1 construct: expressed in transfected cells
Kind of test: Functional cAMP assay for SSTR2 agonists (HTRF) in CHO-K1 cells. The conditions noted are these: CHO-K1 cells stably expressing human SST2, 20 min. An outline of the steps: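 Agonism scored as loss of NKH477 (1.6 μM)-driven cAMP, with IBMX present, after 20 min, 37° C. exposure of stably transfected CHO-K1 cells to compound dilutions (typically 0-10,000 nM). Lysates read by time-resolved FRET; cAMP interpolated from standard curve and EC50 derived.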
For orientation: Changes in cAMP serve as a functional read-out for many G protein-coupled receptors.

The next test concerns the target T2, SST2 (Homo sapiens, UniProt P30874).
T2 construct: host or cells: PathHunter CHO-K1 SST2 cells
Kind of test: PathHunter CHO-K1 SST2 internalization assay. The following applies: PathHunter CHO-K1 SST2, 90 min. The method, then:
SMDCs of the present invention were assessed in vitro using the human PathHunter CHO-K1 SST2 β-arrestin2 and PathHunter CHO-K1 SST2 Internalization Assays from DiscoverX. The CHO-K cells were seeded in 20 μLs of cell culture medium in a white-walled 384 well tissue culture-compatible plate at a density of 2500 cells/well. After a 48-hour incubation, cells were treated with 5 μLs of a 1:3 serially diluted SST2 SMDC prepared at 5× concentration with a final top compound concentration of 10 uM for 90 min at 37 C and in 5% CO2. 11 dilutions were tested as well as one treatment that was compound free. After incubation, the media containing treatments were discarded and 20 μL of a working solution of Beta-Glo from Promega Beta-Glo Assay System was added to each well. The plate was then incubated for 60 min at room temperature in the dark. Luminescence was measured using a Tecan plate reader. IC50 curves were generated using the nonlinear regression analysis (four-parameters) with GraphPad Prism 9. Results were the average of duplicates and are corrected for background.

For test [2], the system named is NCI-H524 (ATCC) human small cell lung cancer cells. The method, then: SMDCs of the present invention were assessed in an in vitro assay evaluating the inhibition of cell proliferation. NCI-H524 (ATCC) human small cell lung cancer cells were plated in 96-well V-bottom plates (Costar) at a concentration of 5,000 cells/well. 24 h later, the cells were treated for 2 h with a SMDC. SMDC starting dose was 1 uM and two-fold serial dilutions were done for a total of 11 points. After 2 h of treatment, cells were spun down, and the drug-containing media was removed, and fresh complete media was added and used to resuspend the cells, which were spun again. After removal of the media, the cells were resuspended in complete medium and incubated for an additional 70 h. Cell proliferation was assessed using the CellTiter Glo Assay according to the standard protocol (Promega). Luminescence was measured using a TECAN plate reader. Percent proliferation inhibition was calculated using the following formula: % inhibition=(Luminescence Control−Luminescence Treatment)/Luminescence Control*100. IC50 curves were generated using the nonlinear regression analysis (four-parameter) with GraphPad Prism 9.

The mark [3] stands for this setting: 2 h treatment, washout, additional 70 h, read-out: H524 EC50.

Where two headings read alike, the source gives them in different places. Starred links: 1 amine or outer side, 2 acyl side, 3 side chain; linkers in the order of their positions; H or OH if unused. Non-standard residues stand in square brackets, D forms with d. Residues, ends and D or L forms follow the SMILES beside them. *: point of attachment. X1 = Cc1cc(F)cc(-c2cnc(NCCNC(=O)CCOCCC(=O)*)c(-c3nc4ccc(Cl)cc4[nH]3)c2N2CCC(N)CC2)c1; Dolaproine = CO[C@@H]([C@@H]1CCCN1)[C@@H](C)C(=O)O; Dil = CC[C@H](C)[C@H](NC)[C@@H](CC(=O)O)OC; PABC = O=C(OCc1ccc(N[*:1])cc1)[*:2]; X2 = C[C@@H](N*)[C@@H](O)c1ccccc1; Cit = NC(=O)NCCC[C@H](N)C(=O)O; NMeV = CN[C@H](C(=O)O)C(C)C Where only a bound is given, the exact number is not on record here.

T2 sequence (P30874 whole entry): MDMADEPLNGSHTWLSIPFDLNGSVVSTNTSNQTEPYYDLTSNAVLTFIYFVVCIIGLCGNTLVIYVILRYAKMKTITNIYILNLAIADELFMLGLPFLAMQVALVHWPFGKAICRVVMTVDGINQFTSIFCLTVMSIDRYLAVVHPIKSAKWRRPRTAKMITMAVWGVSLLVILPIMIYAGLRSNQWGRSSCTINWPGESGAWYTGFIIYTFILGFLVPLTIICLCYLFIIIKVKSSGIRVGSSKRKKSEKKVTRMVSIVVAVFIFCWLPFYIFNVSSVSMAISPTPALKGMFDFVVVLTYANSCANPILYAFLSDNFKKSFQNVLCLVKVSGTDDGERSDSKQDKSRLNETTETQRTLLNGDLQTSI
T1 sequence (P30874 whole entry): as above

Broadly, the EC50 is the midpoint of the concentration-response curve. For `COc1cc2cc(c1Cl)N(C)C(=O)C[C@H](OC(=O)[C@@H](C)N(C)C(=O)CCSSCCOCCOCCOCCC(=O)NCCNc1ncc(-c3cc(C)cc(F)c3)c(N3CCC(N)CC3)c1-c1nc3ccc(Cl)cc3[nH]1)[C@]1(C)OC1[C@@H](C)C1C[C@@](O)(NC(=O)O1)[C@H](OC)/C=C/C=C(\C)C2` (stereo partly drawn) [Compound 19, (2S,5S,6S,16E,18E,20R,21S)-11-chloro-21-hydroxy-12,20-dimethoxy-2,5,9,16-tetramethyl-8,23-dioxo-4,24-dioxa-9,22-diazatetracyclo[19.3.1.1^10,14.0^3,5]hexacosa-10,12,14(26),16,18-pentaen-6-yl (2R)-2-{1-[(2-{[4-(4-aminopiperidin-1-yl)-3-(6-chloro-1H-1,3-benzodiazol-2-yl)-5-(3-fluoro-5-methylphenyl)pyridin-2-yl]amino}ethyl)carbamoyl]-N-methyl-3,6,9-trioxa-12,13-dithiahexadecan-16-amido}propanoate], the EC50 in test [1] (read-out: hSST2 cAMP Avg EC50) came to 0.44 nM; at SST2 (read-out: Internalization EC50), 7.1 nM; in test [2] (2 h) it was 20 nM.

Take `COc1cc2cc(c1Cl)N(C)C(=O)CC(OC(=O)[C@@H](C)N(C)C(=O)CCSSCCC(=O)NCCNc1ncc(-c3cc(C)cc(F)c3)c(N3CCC(N)CC3)c1-c1nc3ccc(Cl)cc3[nH]1)[C@]1(C)OC1[C@@H](C)C1C[C@@](O)(NC(=O)O1)[C@H](OC)/C=C/C=C(\C)C2` (stereo partly drawn) [Compound 20, (2S,5S,6S,16E,18E,20R,21S)-11-chloro-21-hydroxy-12,20-dimethoxy-2,5,9,16-tetramethyl-8,23-dioxo-4,24-dioxa-9,22-diazatetracyclo[19.3.1.1^10,^14.0^3,^5]hexacosa-10,12,14(26),16,18-pentaen-6-yl (2R)-2-[3-({2-[(2-{[4-(4-aminopiperidin-1-yl)-3-(6-chloro-1H-1,3-benzodiazol-2-yl)-5-(3-fluoro-5-methylphenyl)pyridin-2-yl]amino}ethyl)-carbamoyl]ethyl}disulfanyl)-N-methylpropanamido]propanoate]: the concentration for a half-maximal effect (EC50) was 0.27 nM in test [1] (read-out: hSST2 cAMP Avg EC50), 6.3 nM at SST2 (read-out: Internalization EC50) and 31.6 nM in test [2] (2 h).

For `COc1cc2cc(c1Cl)N(C)C(=O)CC(OC(=O)[C@@H](C)N(C)C(=O)CCSSCCOCCOCCOCCOCCC(=O)NCCNc1ncc(-c3cc(C)cc(F)c3)c(N3CCC(N)CC3)c1-c1nc3ccc(Cl)cc3[nH]1)[C@]1(C)OC1[C@@H](C)C1C[C@@](O)(NC(=O)O1)[C@H](OC)/C=C/C=C(\C)C2` (stereo partly drawn) [Compound 21], the EC50 in test [1] (read-out: hSST2 cAMP Avg EC50) was 0.41 nM; at SST2 (read-out: Internalization EC50) it was 17.2 nM; in test [2] (2 h), 22.4 nM.

On to `COc1cc2cc(c1Cl)N(C)C(=O)CC(OC(=O)[C@@H](C)N(C)C(=O)CCSSCCOCCOCCOCCOCCOCCOCCOCCOCCC(=O)NCCNc1ncc(-c3cc(C)cc(F)c3)c(N3CCC(N)CC3)c1-c1nc3ccc(Cl)cc3[nH]1)[C@]1(C)OC1[C@@H](C)C1C[C@@](O)(NC(=O)O1)[C@H](OC)/C=C/C=C(\C)C2` (stereo partly drawn) [Compound 22], for which the concentration for a half-maximal effect (EC50) in test [1] (read-out: hSST2 cAMP Avg EC50) was determined as 0.36 nM; on SST2 (read-out: Internalization EC50), 26 nM; in test [2] (2 h), 27.1 nM.

`COc1cc2cc(c1Cl)N(C)C(=O)CC(OC(=O)[C@@H](C)N(C)C(=O)CCSSCCC(=O)NCCNc1ncc(-c3cc(C)cc(F)c3)c(N3CCC(N)CC3)c1-c1nc3ccc(C(N)=O)cc3[nH]1)[C@]1(C)OC1[C@@H](C)C1C[C@@](O)(NC(=O)O1)[C@H](OC)/C=C/C=C(\C)C2` (stereo partly drawn) [Compound 23, (16E,18E)-11-chloro-21-hydroxy-12,20-dimethoxy-2,5,9,16-tetramethyl-8,23-dioxo-4,24-dioxa-9,22-diazatetracyclo[19.3.1.1^10,^14.0^3,^5]hexacosa-10,12,14(26),16,18-pentaen-6-yl 2-[3-({2-[(2-{[4-(4-aminopiperidin-1-yl)-3-(6-carbamoyl-1H-1,3-benzodiazol-2-yl)-5-(3-fluoro-5-methylphenyl)pyridin-2-yl]amino}ethyl)carbamoyl]ethyl}disulfanyl)-N-methylpropanamido]propanoate]: the results for the EC50 (in test [1] (read-out: hSST2 cAMP Avg EC50); on SST2 (read-out: Internalization EC50); in test [2] (2 h)) were 0.66 nM, 245 nM and 132 nM, respectively.

With `Cc1cc(F)cc(-c2cnc(NCCNC(=O)CCOCCC(=O)NCCNC(=O)c3c(C)[nH]c(/C=C4\C(=O)Nc5ccc(F)cc54)c3C)c(-c3nc4ccc(Cl)cc4[nH]3)c2N2CCC(N)CC2)c1` [Compound 29, N-(2-{[4-(4-aminopiperidin-1-yl)-3-(6-chloro-1H-1,3-benzodiazol-2-yl)-5-(3-fluoro-5-methylphenyl)pyridin-2-yl]amino}ethyl)-3-[2-({2-[(5-{[(3Z)-5-fluoro-2-oxo-2,3-dihydro-1H-indol-3-ylidene]methyl}-2,4-dimethyl-1H-pyrrol-3-yl)formamido]ethyl}carbamoyl)ethoxy]propenamide], the EC50 in test [1] (read-out: hSST2 cAMP Avg EC50) is 0.065 nM; at SST2 (read-out: Internalization EC50), 2.2 nM; in test [2] (2 h), greater than 10000 nM.

Consider `CC[C@H](C)[C@@H]([C@@H](CC(=O)N1CCC[C@H]1[C@H](OC)[C@@H](C)C(=O)N[C@H](C)[C@@H](O)c1ccccc1)OC)N(C)C(=O)[C@@H](NC(=O)[C@H](C(C)C)N(C)C(=O)OCc1ccc(NC(=O)[C@H](CCCNC(N)=O)NC(=O)[C@@H](NC(=O)CCOCCOCCOCCOCCC(=O)NCCNc2ncc(-c3cc(C)cc(F)c3)c(N3CCC(O)CC3)c2-c2nc3ccc(Cl)cc3[nH]2)C(C)C)cc1)C(C)C` [Compound 31], for which the concentration giving a half-maximal response (EC50) in test [1] (read-out: hSST2 cAMP Avg EC50) was 1700 nM; on SST2 (read-out: Internalization EC50), greater than 1000 nM; in test [2] (2 h), 1060 nM.

On to `CC[C@H](C)[C@@H]([C@@H](CC(=O)N1CCC[C@H]1[C@H](OC)[C@@H](C)C(=O)N[C@H](C)[C@@H](O)c1ccccc1)OC)N(C)C(=O)[C@@H](NC(=O)[C@H](C(C)C)N(C)C(=O)OCc1ccc(NC(=O)[C@H](CCCNC(N)=O)NC(=O)[C@@H](NC(=O)CN2CCN(CC(=O)O)CCN(CC(=O)NCCNc3ncc(-c4cc(C)cc(F)c4)c(N4CCC(N)CC4)c3-c3nc4ccc(Cl)cc4[nH]3)CC2)C(C)C)cc1)C(C)C` [Compound 33], for which the 50% effective concentration (EC50) in test [1] (read-out: hSST2 cAMP Avg EC50) was 0.63 nM; on SST2 (read-out: Internalization EC50), 34.9 nM; in test [2] (2 h), 274 nM.

`CC[C@H](C)[C@@H]([C@@H](CC(=O)N1CCC[C@H]1[C@H](OC)[C@@H](C)C(=O)N[C@H](C)[C@@H](O)c1ccccc1)OC)N(C)C(=O)[C@@H](NC(=O)[C@H](C(C)C)N(C)C(=O)CNC(=O)[C@H](Cc1ccccc1)NC(=O)CNC(=O)CNC(=O)CCOCCC(=O)NCCNc1ncc(-c2cc(C)cc(F)c2)c(N2CCC(N)CC2)c1-c1nc2ccc(Cl)cc2[nH]1)C(C)C` [Compound 34] (X1-GGFG[NMeV]V[Dil][Dolaproine]-X2): the figures for the EC50 (in test [1] (hSST2 cAMP Avg EC50 (nM)); on SST2 (Internalization EC50 (nM)); in test [2] (setting [3])) were 0.16 nM, 21.8 nM and 3140 nM, respectively.

For `CC[C@H](C)[C@@H]([C@@H](CC(=O)N1CCC[C@H]1[C@H](OC)[C@@H](C)C(=O)N[C@H](C)[C@@H](O)c1ccccc1)OC)N(C)C(=O)[C@@H](NC(=O)[C@H](C(C)C)N(C)C(=O)OCc1ccc(NC(=O)[C@H](CCCNC(N)=O)NC(=O)[C@@H](NC(=O)[C@H](CCC(=O)O)NC(=O)CCOCCC(=O)NCCNc2ncc(-c3cc(C)cc(F)c3)c(N3CCC(N)CC3)c2-c2nc3ccc(Cl)cc3[nH]2)C(C)C)cc1)C(C)C` [Compound 36] (X1-EV[Cit][PABC][NMeV]V[Dil][Dolaproine]-X2), the results for the EC50 (in test [1] (read-out: hSST2 cAMP Avg EC50); at SST2 (read-out: Internalization EC50); in test [2] (2 h)) were 0.25 nM, 12.9 nM and 44.1 nM, respectively.

With `CC[C@H](C)[C@@H]([C@@H](CC(=O)N1CCC[C@H]1[C@H](OC)[C@@H](C)C(=O)N[C@H](C)[C@@H](O)c1ccccc1)OC)N(C)C(=O)[C@@H](NC(=O)[C@H](C(C)C)N(C)C(=O)OCc1ccc(NC(=O)[C@H](CCCNC(N)=O)NC(=O)[C@@H](NC(=O)CCOCCNC(=O)CN2CCN(CC(=O)O)CCN(CC(=O)NCCNc3ncc(-c4cc(C)cc(F)c4)c(N4CCC(N)CC4)c3-c3nc4ccc(Cl)cc4[nH]3)CC2)C(C)C)cc1)C(C)C` [Compound 37], the EC50 is 0.071 nM in test [1] (read-out: hSST2 cAMP Avg EC50), 13.7 nM on SST2 (read-out: Internalization EC50) and 102 nM in test [2] (2 h).

With `CC[C@@]1(O)C(=O)OCc2c1cc1n(c2=O)Cc2c-1nc1cc(F)c(C)c3c1c2[C@@H](NC(=O)OCc1ccc(NC(=O)[C@H](CCCNC(N)=O)NC(=O)[C@@H](NC(=O)CCOCCOCCOCCOCCC(=O)NCCNc2ncc(-c4cc(C)cc(F)c4)c(N4CCC(N)CC4)c2-c2nc4ccc(Cl)cc4[nH]2)C(C)C)cc1)CC3` [Compound 38], the 50% effective concentration (EC50) in test [1] (hSST2 cAMP Avg EC50 (nM)) was 0.11 nM; on SST2 (Internalization EC50 (nM)), 1 nM; in test [2] (setting [3]), 59.4 nM.
